Assay results taken from PMC3709818, “A Novel Perspective and Approach to Intestinal Octreotide Absorption: Sinomenine-Mediated Reversible Tight Junction Opening and Its Molecular Mechanism” (International Journal of Molecular Sciences, 2013).
Counter-ions that a name gives are not always drawn.

Legend:
[1] = OCT transport across Caco-2 cell monolayers; format: in vitro ADME, human; details: Caco-2, 21 days, Transwell, 10 μM OCT with or without 0.5% SN, PBS pH 7.4, 120 min, 37 °C, LC-MS/MS, triplicate, mean ± s.d.
Procedure: Caco-2 cells were seeded onto polycarbonate 12-well Transwell® filter inserts as described above. The OCT transport experiment was performed in the apical-to-basolateral directions in PBS adjusted to pH 7.4 [7]. A volume of 0.5 mL of 0.5% SN containing 10 μM OCT was added to the apical side of Caco-2 cell monolayers. The medium in the basolateral side was buffered by the addition of 1.5 mL PBS of each well. Samples of 0.1 mL were withdrawn at time intervals of 30, 60, 90 and 120 min from the basolateral side after the incubation of the solutions on the apical side of cell monolayers. The samples withdrawn were replaced with an equal volume of buffered PBS. Control experiments were performed using a solution of OCT alone. […]
The results were corrected for dilution and plotted as the percentage cumulative OCT transported as a function of time. The apparent permeability coefficients (Papp) were calculated according to the following equation [33]: Papp = ΔQ/(Δt × A × C0) (cm/s), where ΔQ/Δt is the amount of OCT transported within a given time period or permeability rate (ng/min), A is the surface area of the cell monolayer on the insert (cm^2) and C0 is the initial drug concentration (ng/mL). Permeation enhancement ratios (R) were calculated from the Papp values using the following equation R = Papptest/Pappcontrol.

Caco-2 cell monolayers [2] = assay: LDH release cytotoxicity assay; format: cell-based, human
Procedure: To examine the toxic effects of SN to the Caco-2 cells, a lactate dehydrogenase (LDH) release assay was performed according to Madara and Stafford. The Caco-2 monolayer, which had been cultured in 24-well plates for 21 days, was washed with 500 μL of the PBS and was then incubated with 500 μL of the PBS containing the samples (0.5%, 1%, 2% w/v SN) to be tested at 37 °C for 120 min. Control experiments were performed under the same conditions but without SN. The amounts of LDH in the supernatant were determined using the enzymatic method and following the manufacturer’s instructions of LDH-Cytotoxic test kit from Nanjing KeyGEN Biotech. CO., Ltd. (Nanjing, China). Cytotoxicity was determined after 120 min of SN treatment, and the absorbance at 440 nm (reference wavelength was 650 nm) was measured to determine LDH activity. The cytotoxicity to the Caco-2 cell monolayers was expressed by the ratio of LDH released into the supernatant compared with the control group.
The LDH activity was calculated thus: (U/L) = (ODu − ODc)/(ODs − ODb) × Cs × N × 1000, where ODu, ODc, ODs, ODb represent the absorbance of the test tube, control tube, standard tube, and background tube, respectively, C represents the standard concentration (2 mmol/L) and N represents the dilution ratio of the sample.

Caco-2 cell monolayers [3] = assay: Transepithelial electrical resistance (TEER) measurement; format: cell-based, human
Procedure: The cell monolayer integrity was examined by measuring the TEER and evaluating the cell permeability to FD-4 in Caco-2 cell monolayers. The experiments were performed after Caco-2 cells formed polarized monolayers. Cells were seeded onto polycarbonate 12-well Transwell® filter inserts (Corning Costar Corp., Cambridge, MA, USA; pore size 0.4 μm, growth area 1.12 cm^2) at a density of 1 × 10^6 cells/mL, and the cells were grown for 21 days before the TEER study was conducted. After the application of 0.5% SN, TEER was measured at time intervals of 20 min for a period of 120 min. Then, the reversibility of SN on TEER was measured by removing SN from the apical compartment and replacing it with serum-free DMEM for a further 120 min at 20-min intervals. To observe the effect of PKC to SN, cells in another group were treated with 0.5% SN and 10 μM Ro318220 (PKC inhibitor) together for 120 min at 20-min intervals. Control experiments were performed under the same conditions but without SN. All of the experiments were performed in triplicate at 37 °C in an atmosphere of 90% relative humidity and 5% CO2. The TEER measurements across Caco-2 cell monolayers were performed using a Millicell ERS instrument (Millipore, Bedford, MA, USA). The TEER values of these cells after treatment were recorded. Resistance due to the cell monolayers was determined in the presence and the absence of SN after subtracting the contribution of the blank filter. The percent change in TEER was calculated as follows:
(1) TEER=(R1-R0)×A (Ω·cm^2)
where R1 and R0 represent the TEER readings from the wells with cells and the no-cell background wells, respectively, and A (cm^2) represents the surface area of the cell monolayer on the insert.
(2) TEER%=TEERtest/EERinitial×100

Caco-2 cell monolayers [4] = assay: FD-4 permeability (paracellular flux); format: cell-based, human; details: 0.1% FD-4 apical, 0.5% SN with or without 10 μM Ro318220, up to 120 min, PBS pH 7.4, fluorescence
Procedure: The integrity of the cell monolayer TJs was also examined by evaluating the FD-4 permeability in PBS adjusted to pH 7.4. A volume of 0.5 mL of 0.1% FD-4 containing 0.5% SN or 0.5% SN + 10 μM Ro318220 was added to the apical side of Caco-2 cell monolayers. The medium in basolateral side was buffered by the addition of 1.5 mL PBS to each well. Samples of 0.1 mL were withdrawn at time intervals of 30, 60, 90 and 120 min from the basolateral side after the incubation of the solutions on the apical side of cell monolayers. The samples withdrawn were replaced with an equal volume of buffered PBS. Control experiments were performed using a solution of 0.1% FD-4 alone. All of the experiments were performed in triplicate at 37 °C in an atmosphere of 90% relative humidity and 5% CO2. Basolateral solutions were then sampled and analyzed.
Quantitative analysis of FD-4: Samples were centrifuged at 10,000 rpm for 10 min, and the supernatant was analyzed using a fluorescence spectrophotometer at an excitation wavelength of 495 nm and an emission wavelength of 520 nm (Hitachi, FP6500, Tokyo, Japan).
Permeation clearance: ΔQ/(Δt × C0), where ΔQ/Δt is the permeation flux, i.e., the transport rate (μg/min), and C0 is the initial concentration on the donor side (μg/mL). Clearance was obtained per unit surface area and expressed as nL/min/cm2.

claudin-1 = assay: Claudin-1 gene and protein expression (real-time PCR, western blot, immunofluorescence); format: cell-based, human; details: Caco-2 monolayers
Procedure: Caco-2 cells were grown on 6-well plates for 21 days and were then treated with SN for 2 h. Then, SN was removed by washing the cells with PBS twice. The cells were grown with new culture medium for another 2 h. To observe the effect of PKC on SN, cells in another group were treated with 0.5% SN and 10 μM Ro318220 together for 2 h. Control experiments were performed under the same conditions but without SN. The gene level expressions induced by SN treatment and after its removal were investigated. Total RNA was extracted following a standard guanidinium phenol-chloroform extraction protocol. The quantity of mRNA was determined by measuring the optical density at 260 nm (A260 nm = 1 for 40 μg/mL RNA), and the purity of mRNA was assessed by determining the ratio of the optical density obtained at 260 and 280 nm (pure RNA: A260 nm/A280 nm = 2.0) using a UV-1206 spectrophotometer (Shimadzu, Tokyo, Japan). […] Quantitative real-time PCR was performed using the Applied Biosystems 7500 faster Real-Time PCR System with the SYBR® Premix Ex Taq™ (Tli RNaseH Plus) Master Mix purchased from Takara Bio Inc. (Dalian, China) in triplicate for each sample and each gene. […] The results were expressed as the folds of the CT value for the target mRNA to that of the β-actin mRNA. […]

PKC-α = PKC-α translocation cytosol to membrane (western blot); format: cell-based, human; details: Caco-2 cells, 0.5% SN, 2 h
Procedure: Caco-2 cells were grown on 6-well plates and were treated with SN as described above. After treatment, cytosolic, membrane and total protein were extracted following the manufacturer’s instructions of the test kit from Nanjing KeyGEN Biotech. CO., LTD (China). The protocols for western blot analyses have been described previously. The protein concentration was calculated using the BCA Protein Assay Kit from Nanjing KeyGEN Biotech. CO., LTD (China). Equal amounts of protein samples (30 μg protein) were separated onto SDS-polyacrylamide gels (PKC and β-actin were 12% gels, claudin-1 was 15% gels), and the separated proteins were transferred to a PVDF membrane. After blocking in 5% skim milk in Tris-buffered saline containing 0.05% Tween-20 (TTBS), the PVDF membrane was incubated overnight in blocking buffer with diluted primary antibodies: anti-claudin-1 (Abcam, Cambridge, MA, USA, 1:1000 dilution), anti-PKC-α (Beyotime Institute of Biotechnology, China, 1:500 dilution), and anti-β-actin (Zhongshan Goldenbridge Biological Technology, Beijing, China, 1:500 dilution), at 4 °C. […] The product bands were photographed, and the density of each product band was quantified. The intensity of each signal was corrected using the values obtained from the immunodetection of β-actin, and the relative protein intensity was expressed as folds of the content in the normal group.

[5] = everted rat gut sac model; cited from earlier work

C[C@@H](O)[C@@H]1NC(=O)[C@H](CCCCN)NC(=O)[C@@H](Cc2c[nH]c3ccccc23)NC(=O)[C@H](Cc2ccccc2)NC(=O)[C@@H](NC(=O)[C@H](N)Cc2ccccc2)CSSC[C@@H](C(=O)N[C@H](CO)[C@@H](C)O)NC1=O [OCT, Octreotide]
Papp A→B [1]: 26.7 ± 0.15 nm/s

COC1=C[C@@H]2[C@@H]3Cc4ccc(OC)c(O)c4[C@]2(CCN3C)CC1=O [SN, Sinomenine hydrochloride]
LDH release vs control (Caco-2 cell monolayers [2]; 0.5% w/v SN, 120 min, PBS 37 °C, Caco-2 monolayers cultured 21 days): did not differ from the control | cytotoxicity by LDH test (Caco-2 cell monolayers [2]; 1% w/v SN, 120 min, Caco-2 monolayers): cytotoxic effects | LDH release vs control (Caco-2 cell monolayers [2]; 2% w/v SN, 60 min, Caco-2 monolayers): markedly increased LDH activity | cytotoxicity by LDH test (Caco-2 cell monolayers [2]; 2% w/v SN, 120 min, Caco-2 monolayers): cytotoxic effects | TEER recovery after SN removal vs control (Caco-2 cell monolayers [3]; 0.5% SN 120 min, then removal, at 240 min): no difference compared with the control | effect on TEER at 120 min vs control (Caco-2 cell monolayers [3]; 0.5% SN with or without 10 μM Ro318220, 120 min, Caco-2 monolayers, triplicate): strong reduction of TEER | TEER relative to the initial value (Caco-2 cell monolayers [3]; 0.5% SN, 120 min incubation, pH 7.4, Caco-2 monolayers): 43% | time for transient and reversible opening of TJ (Caco-2 cell monolayers [3]; 0.5% SN, Caco-2 monolayers, recovery after removal): 2 h | FD-4 flux (A-B) (Caco-2 cell monolayers [4]): time-dependent increase in FD-4 flux | claudin-1 expression after SN removal (claudin-1; 0.5% SN 2 h, then 2 h after removal): returned to its normal level | claudin-1 gene and protein expression vs control (claudin-1; 0.5% SN with or without 10 μM Ro318220, 2 h): distinct loss of claudin-1 gene | PKC-α distribution between cytosolic and membrane fraction (PKC-α): most PKC-α was present in the membrane fraction

C[C@@]12C[C@@]3(O)O[C@@H](O1)[C@]1(COC(=O)c4ccccc4)[C@H]3C[C@@]12O[C@@H]1O[C@H](CO)[C@@H](O)[C@H](O)[C@H]1O [paeoniflorin]
increase of paeoniflorin absorption when co-incubated with SN [5]: approximately 2.5 fold
